Assay results reported in ChEMBL document CHEMBL5579799, “Synthesis and biological evaluation of novel 18F-labeled 2,4-diaminopyrimidine derivatives for detection of ghrelin receptor in the brain” (Bioorg Med Chem Lett, 2024).

Experiments:
[1] = Ratio of drug concentration in rat brain to plasma at po administration measured after 1 hr
[2] = target: Growth hormone secretagogue receptor type 1 (Homo sapiens, UniProt Q92847)
Growth hormone secretagogue receptor type 1, sequence (Q92847 whole entry): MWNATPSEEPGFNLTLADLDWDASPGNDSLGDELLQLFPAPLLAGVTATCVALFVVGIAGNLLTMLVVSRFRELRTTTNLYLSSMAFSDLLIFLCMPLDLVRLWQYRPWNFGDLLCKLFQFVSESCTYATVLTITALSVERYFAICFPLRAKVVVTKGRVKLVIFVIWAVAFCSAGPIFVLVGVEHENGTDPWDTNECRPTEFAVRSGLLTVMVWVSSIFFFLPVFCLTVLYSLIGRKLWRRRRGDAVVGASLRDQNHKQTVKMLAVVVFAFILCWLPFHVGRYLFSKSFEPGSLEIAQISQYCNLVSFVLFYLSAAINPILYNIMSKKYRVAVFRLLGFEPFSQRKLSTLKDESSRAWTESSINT
Description: Displacement of [125I]ghrelin from human GHSR assessed as inhibition constant by competitive binding assay

| Structure (SMILES) | Kp at 1 h [1] | Ki [2] [nM] |
| --- | --- | --- |
| Nc1nc(N)c(-c2ccc(NCc3ccc(Cl)cc3)cc2)c(COCc2ccccc2)n1 | 3.05 | 108 |
| CCc1nc(N)nc(N)c1-c1ccc(NCc2ccc(OCCF)cc2)cc1 | – | > 5000 |
